This is an account of results in patent publication US8987195B2 (priority 2012, dated 2015).

The test system of one experiment is HCV genotype 1b replicon. The experiment in a line: HCV replicon assay, genotype 1b replicon EC50. Format: cell-based, Hepatitis C virus. Particulars: Hepatitis C virus, HCV replicon, genotype 1b, read-out: EC50 [gt-1b]. The essentials: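 Readout was replicon RNA copy number, by 32P-probe protection or TaqMan normalized to cellular cyclophilin A RNA, or luciferase activity for luciferase:Neo^r fusion lines. Cells were exposed to serially diluted compound for 24-48 hours without G418, then washed and lysed. EC50 derived from four-parameter fit relative to DMSO.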
(In general: Replicon systems follow genome replication, usually without infectious particles.)

The target of experiment [1] is HCV NS3/4A protease genotype 1b (Hepatitis C virus genotype 1b, UniProt P26663). Put plainly: HCV NS3/4A protease time-resolved fluorescence (TRF) assay, Ki against genotype 1b. The experiment is classed as biochemical. Particulars: IC50 [gt-1b], NS3/4A protease TRF assay, genotype 1b enzyme 0.2 nM. The essentials:
(§1)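 Enzyme 0.2 nM 1b / 0.4 nM A156T / 0.025 nM 3a; 30 min preinc. w/ cpd; 25 nM TRF peptide; 2.5 h RT; ex 340/em 615 time-delayed; 4-param IC50 → Ki = IC50/(1+[S]/KM).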

In experiment [2] the target is HCV NS3/4A protease A156T mutant (Hepatitis C virus genotype 1b, UniProt P26663, A1182T). The experiment in a line: HCV NS3/4A protease time-resolved fluorescence (TRF) assay, Ki against A156T mutant. Format: biochemical. The note with it: NS3/4A protease TRF assay, A156T mutant enzyme 0.4 nM, read-out: IC50 [gt-1b A156T]. In short, it runs like this:
as §1

Experiment [3] has as its target HCV NS3/4A protease genotype 3a (Hepatitis C virus genotype 3a, UniProt Q81495). Put plainly: HCV NS3/4A protease time-resolved fluorescence (TRF) assay, Ki against genotype 3a. The experiment is classed as biochemical. In short, it runs like this:
as §1

Read-outs that look alike come from different tables or passages of the source.

Usually EC50 stands for the concentration needed to bring the measured effect to its halfway point. As usually defined, the IC50 is the concentration needed to halve the response being measured.

`COc1ccc2nc(C(F)(F)F)c3c(c2c1)CC[C@]1(C[C@H]2C(=O)N[C@]4(C(=O)NS(=O)(=O)C5(C)CC5)C[C@H]4/C=C\CCCCC[C@H](NC(=O)OCC(C)(C)C)C(=O)N2C1)O3` [Example 382, 2,2-dimethylpropyl [(2R,6S,12Z,13aS,14aR,16aS)-9′-methoxy-14a-{[(1-methylcyclopropyl)sulfonyl]carbamoyl}-5,16-dioxo-5′-(trifluoromethyl)-1,1′,2′,5,6,7,8,9,10,11,13a,14,14a,15,16,16a-hexadecahydrospiro[cyclopropa[e]pyrrolo[1,2-a][1,4]diazacyclopentadecine-2,3′-pyrano[2,3-c]quinolin]-6-yl]carbamate]: the EC50 in the experiment on HCV genotype 1b replicon (K+ salt) is 3.61 nM. For the same compound, the half-inhibitory concentration (IC50) in experiment [1] (K+ salt) worked out at 0.028 nM; in experiment [2] (K+ salt), 2.34 nM; in experiment [3], 1.09 nM.

For `COc1ccc2nc(C(F)(F)F)c3c(c2c1)CC[C@]1(C[C@H]2C(=O)N[C@]4(C(=O)NS(=O)(=O)C5(C)CC5)C[C@H]4/C=C\CCCCC[C@H](NC(=O)OC4(C)CCC4)C(=O)N2C1)O3` [Example 451, 1-methylcyclobutyl [(2R,6S,12Z,13aS,14aR,16aS)-9′-methoxy-14a-{[(1-methylcyclopropyl)sulfonyl]carbamoyl}-5,16-dioxo-5′-(trifluoromethyl)-1,1′,2′,5,6,7,8,9,10,11,13a,14,14a,15,16,16a-hexadecahydrospiro[cyclopropa[e]pyrrolo[1,2-a][1,4]diazacyclopentadecine-2,3′-pyrano[2,3-c]quinolin]-6-yl]carbamate], in the experiment with HCV genotype 1b replicon, the EC50 is 1.86 nM. The half-inhibitory concentration (IC50) came out at 0.006 nM in experiment [1], 0.338 nM in experiment [2] and 0.504 nM in experiment [3].

Consider `CC[C@@H](C)OC(=O)N[C@H]1CCCCC/C=C\[C@@H]2C[C@@]2(C(=O)NS(=O)(=O)C2(C)CC2)NC(=O)[C@@H]2C[C@]3(CCc4c(c(C(F)(F)F)nc5ccc(OC)cc45)O3)CN2C1=O` [Example 459, (2R)-butan-2-yl [(2R,6S,12Z,13aS,14aR,16aS)-9′-methoxy-14a-{[(1-methylcyclopropyl)sulfonyl]carbamoyl}-5,16-dioxo-5′-(trifluoromethyl)-1,1′,2′,5,6,7,8,9,10,11,13a,14,14a,15,16,16a-hexadecahydrospiro[cyclopropa[e]pyrrolo[1,2-a][1,4]diazacyclopentadecine-2,3′-pyrano[2,3-c]quinolin]-6-yl]carbamate], for which the EC50 in the experiment on HCV genotype 1b replicon (K+ salt) was 4.4 nM. Also, the concentration for half-maximal inhibition (IC50) came to 0.049 nM in experiment [1] (K+ salt), 2.65 nM in experiment [2] (K+ salt) and 2.31 nM in experiment [3].

`CC[C@H](C)OC(=O)N[C@H]1CCCCC/C=C\[C@@H]2C[C@@]2(C(=O)NS(=O)(=O)C2(C)CC2)NC(=O)[C@@H]2C[C@]3(CCc4c(c(C(F)(F)F)nc5ccc(OC)cc45)O3)CN2C1=O` [Example 460, (2S)-butan-2-yl [(2R,6S,12Z,13aS,14aR,16aS)-9′-methoxy-14a-{[(1-methylcyclopropyl)sulfonyl]carbamoyl}-5,16-dioxo-5′-(trifluoromethyl)-1,1′,2′,5,6,7,8,9,10,11,13a,14,14a,15,16,16a-hexadecahydrospiro[cyclopropa[e]pyrrolo[1,2-a][1,4]diazacyclopentadecine-2,3′-pyrano[2,3-c]quinolin]-6-yl]carbamate]: the EC50 in the experiment on HCV genotype 1b replicon (K+ salt) was 2.99 nM. Besides, the IC50 is 0.034 nM in experiment [1] (K+ salt), 2.74 nM in experiment [2] (K+ salt) and 1.78 nM in experiment [3].

For the compound `COc1ccc2nc(C(F)(F)F)c3c(c2c1)[C@H](F)C[C@]1(C[C@H]2C(=O)N[C@]4(C(=O)NS(=O)(=O)C5(C)CC5)C[C@H]4/C=C\CCCCC[C@H](NC(=O)OCC(C)C)C(=O)N2C1)O3` [Example 461, 2-methylpropyl [(1′R,2S,6S,12Z,13aS,14aR,16aS)-1′-fluoro-9′-methoxy-14a-{[(1-methylcyclopropyl)sulfonyl]carbamoyl}-5,16-dioxo-5′-(trifluoromethyl)-1,1′,2′,5,6,7,8,9,10,11,13a,14,14a,15,16,16a-hexadecahydrospiro[cyclopropa[e]pyrrolo[1,2-a][1,4]diazacyclopentadecine-2,3′-pyrano[2,3-c]quinolin]-6-yl]carbamate], the EC50 with HCV genotype 1b replicon came out at 3.29 nM. In addition, the figures for the IC50 in experiment [1], in experiment [2] and in experiment [3] were 0.029 nM, 0.435 nM and 0.624 nM, respectively.

Take `COc1ccc2nc(C(F)(F)F)c3c(c2c1)CC[C@]1(C[C@H]2C(=O)N[C@]4(C(=O)NS(=O)(=O)C5(C)CC5)C[C@H]4/C=C\CCCCC[C@H](NC(=O)OC4CCOC4)C(=O)N2C1)O3` (stereo partly drawn) [Example 481, tetrahydrofuran-3-yl [(2R,6S,12Z,13aS,14aR,16aS)-9′-methoxy-14a-{[(1-methylcyclopropyl)sulfonyl]carbamoyl}-5,16-dioxo-5′-(trifluoromethyl)-1,1′,2′,5,6,7,8,9,10,11,13a,14,14a,15,16,16a-hexadecahydrospiro[cyclopropa[e]pyrrolo[1,2-a][1,4]diazacyclopentadecine-2,3′-pyrano[2,3-c]quinolin]-6-yl]carbamate]: the EC50 in the experiment with HCV genotype 1b replicon (K+ salt) came to 1.31 nM. Moreover, the IC50 in experiment [1] (K+ salt) is 0.006 nM; in experiment [2] (K+ salt), 0.436 nM; in experiment [3], 0.225 nM.

Turning to `CCc1nc2ccc(OC)cc2c2c1O[C@]1(CC2)C[C@H]2C(=O)N[C@]3(C(=O)NS(=O)(=O)C4(C)CC4)C[C@H]3/C=C\CCCCC[C@H](NC(=O)c3cn[nH]c3)C(=O)N2C1` [Example 482, (2R,6S,12Z,13aS,14aR,16aS)-5′-ethyl-9′-methoxy-N-[(1-methylcyclopropyl)sulfonyl]-5,16-dioxo-6-[(1H-pyrazol-4-ylcarbonyl)amino]-1,1′,2′,6,7,8,9,10,11,13a,14,15,16,16a-tetradecahydrospiro[cyclopropa[e]pyrrolo[1,2-a][1,4]diazacyclopentadecine-2,3′-pyrano[2,3-c]quinoline]-14a(5H)-carboxamide], the concentration for a half-maximal effect (EC50) in the experiment on HCV genotype 1b replicon stood at 68.6 nM. The IC50 amounted to 0.008 nM in experiment [1], 0.101 nM in experiment [2] and 0.418 nM in experiment [3].

`CCc1nc2ccc(OC)cc2c2c1O[C@]1(CC2)C[C@H]2C(=O)N[C@]3(C(=O)NS(=O)(=O)C4(C)CC4)C[C@H]3/C=C\CCCCC[C@H](NC(=O)c3cc(C)cs3)C(=O)N2C1` [Example 483, (2R,6S,12Z,13aS,14aR,16aS)-5′-ethyl-9′-methoxy-N-[(1-methylcyclopropyl)sulfonyl]-6-{[(4-methylthiophen-2-yl)carbonyl]amino}-5,16-dioxo-1,1′,2′,6,7,8,9,10,11,13a,14,15,16,16a-tetradecahydrospiro[cyclopropa[e]pyrrolo[1,2-a][1,4]diazacyclopentadecine-2,3′-pyrano[2,3-c]quinoline]-14a(5H)-carboxamide]: the concentration giving a half-maximal response (EC50) in the experiment with HCV genotype 1b replicon turned out to be 0.438 nM. For the same compound, the half-inhibitory concentration (IC50) in experiment [1] came out at 0.008 nM; in experiment [2], 0.0969 nM; in experiment [3], 0.667 nM.

`CCc1nc2ccc(OCCCOC)cc2c2c1O[C@]1(CC2)C[C@H]2C(=O)N[C@]3(C(=O)NS(=O)(=O)C4(C)CC4)C[C@H]3/C=C\CCCCC[C@H](NC(=O)OCC(C)C)C(=O)N2C1` [Example 484, 2-methylpropyl [(2R,6S,12Z,13aS,14aR,16aS)-5′-ethyl-9′-(3-methoxypropoxy)-14a-{[(1-methylcyclopropyl)sulfonyl]carbamoyl}-5,16-dioxo-1,1′,2′,5,6,7,8,9,10,11,13a,14,14a,15,16,16a-hexadecahydrospiro[cyclopropa[e]pyrrolo[1,2-a][1,4]diazacyclopentadecine-2,3′-pyrano[2,3-c]quinolin]-6-yl]carbamate]: the EC50 with HCV genotype 1b replicon (K+ salt) is 0.357 nM. Further, the IC50 in experiment [1] (K+ salt) amounted to 0.003 nM; in experiment [2] (K+ salt), 0.164 nM; in experiment [3], 0.628 nM.

As to `CCc1nc2ccc(OCCCOC)cc2c2c1O[C@]1(CC2)C[C@H]2C(=O)N[C@]3(C(=O)NS(=O)(=O)C4(C)CC4)C[C@H]3/C=C\CCCCC[C@H](NC(=O)OCC(C)(C)C)C(=O)N2C1` [Example 488, 2,2-dimethylpropyl [(2R,6S,12Z,13aS,14aR,16aS)-5′-ethyl-9′-(3-methoxypropoxy)-14a-{[(1-methylcyclopropyl)sulfonyl]carbamoyl}-5,16-dioxo-1,1′,2′,5,6,7,8,9,10,11,13a,14,14a,15,16,16a-hexadecahydrospiro[cyclopropa[e]pyrrolo[1,2-a][1,4]diazacyclopentadecine-2,3′-pyrano[2,3-c]quinolin]-6-yl]carbamate], the concentration for a half-maximal effect (EC50) in the experiment with HCV genotype 1b replicon (K+ salt) was found to be 0.412 nM. For the same compound, the IC50 in experiment [1] (K+ salt) was found to be 0.004 nM; in experiment [2] (K+ salt), 0.136 nM; in experiment [3], 0.486 nM.
